Earlier results as cited in patent US7820652B2, “Regimen for the administration of rifamycin-class antibiotics” (ActivBiotics Pharma, LLC, priority 2003, dated 2010).

## CO[C@H]1/C=C/O[C@@]2(C)Oc3c(C)c(O)c4c(=O)c(c5oc6cc(N7CCN(CC(C)C)CC7)cc(O)c6nc-5c4c3C2=O)NC(=O)/C(C)=C\C=C\[C@H](C)[C@H](O)[C@@H](C)[C@@H](O)[C@@H](C)[C@H](OC(C)=O)[C@@H]1C [rifalazil]
Mycobacterium species
  activity against mycobacterium species: effective
Mycobacterium species; once or twice-a-week dose regimen, U.S. Pat. No. 6,316,433
  efficacy against mycobacterium species: efficacious
Clinical trials, twice-a-week dosing regimen
  number and severity of adverse reactions: clear dose-related incidence
Daily administration
  blood cell counts and blood hemoglobin: changes in blood cell counts
Daily dose regimen
  adverse reactions: severe adverse reactions
once- or twice-a-week dosing regimen
  incidence of adverse reactions: reduced, but did not eliminate
